Source: patent US10815276B2, “Cell penetrating peptides and methods of making and using thereof” (Entrada Therapeutics, Inc., priority 2014, dated 2020)
Where two headings read alike, the source gives them in different places. Non-standard residues stand in square brackets, D forms with d. Residues, ends and D or L forms follow the SMILES beside them. No end group written: not given here. *: point of attachment. Lys(5-FITC)NH2 = NC(=O)[C@H](CCCCNC(=S)Nc1ccc2c(c1)C(=O)OC21c2ccc(O)cc2Oc2cc(O)ccc21)N*; Ala(7-OPO3H2-coumarin-4-yl) = N[C@@H](Cc1cc(=O)oc2cc(OP(=O)(O)O)ccc12)C(=O)O; RhodamineB = CCN(CC)c1ccc2c(-c3ccccc3C(=O)*)c3ccc(=[N+](CC)CC)cc-3oc2c1; 2Nal = N[C@@H](Cc1ccc2ccccc2c1)C(=O)O; d2Nal = N[C@H](Cc1ccc2ccccc2c1)C(=O)O; AEEA = NCCOCCOCC(=O)O

How the values were obtained:
[1] = tested on: HeLa cells; assay: Cytoplasmic delivery of pCAP-containing peptides, flow cytometry; conditions: 10 μM peptide; for Mean fluorescence intensity (MFI) of CAP: 2 h
[2] = tested on: HEK293 cells; assay: Live-cell confocal microscopy of internalization; format: cell-based, human; conditions: for CAP fluorescence in cells (confocal): 5 μM pCAP peptide, 60 min; for Intracellular fluorescence of rhodamine B-labeled peptide: 5 μM peptide, 2 h
Method: To examine the internalization of rhodamine-labeled peptides, 5×10^4 HEK293 cells were plated in a 35 mm glass-bottomed microwell dish (MatTek). […] The cells were gently washed with DPBS twice and imaged on a Visitech Infinity 3 Hawk 2D-array live cell imaging confocal microscope. To detect the internalization of pCAP-containing peptides, HEK293 cells were similarly plated and incubated with the peptide solution (5 μM) at 37° C. for 60 min. After removal of the medium, the cells were gently washed with DPBS containing sodium pervanadate (1 mM) twice and incubated for 10 min in DPBS containing 5 μM nuclear staining dye DRAQS. The resulting cells were washed with DPBS twice and imaged on a spinning disk confocal microscope (UltraView Vox CSUX1 system). To monitor GFP internalization, 5×10^4 HEK293 cells were seeded in a 35 mm glass-bottomed microwell dish and cultured overnight. Cells were treated with cFΦR4-S-S-GFP (1 μM) at 37° C. for 2 h. After removal of the medium, the cells were incubated in DPBS containing 5 μM DRAQS for 10 min. The cells were washed with DPBS twice and imaged on a Visitech Infinity 3 Hawk 2D-array live cell imaging confocal microscope.

[3] = tested on: cell type (e.g., HeLa cells); assay: Cellular uptake efficiency of cyclic CPPs; format: cell-based; conditions: relative to cFΦR4 (290-1F, 100%)
Method: In particular embodiments, uptake efficiency is determined by comparing (i) the amount of a cyclic cell-penetrating peptide of the invention internalized by a cell type (e.g., HeLa cells) to (ii) the amount of c(FΦRRRRQ) (290-1F) internalized by the same cell type. To measure cellular uptake efficiency, the cell type may be incubated in the presence of a cell-penetrating peptide of the invention for a specified period of time (e.g., 30 minutes, 1 hour, 2 hours, etc.) after which the amount of the cell-penetrating peptide internalized by the cell is quantified. Separately, the same concentration of c(FΦRRRRQ) (290-1F) is incubated in the presence of the cell type over the same period of time, and the amount of the second peptide internalized by the cell is quantified. Quantification can be achieved by fluorescently labeling the cell-penetrating peptide (e.g., with a FTIC dye) and measuring the fluorescence intensity using techniques well-known in the art.
(§1) Also discussed herein are the CPP sequences in Table 16. All uptake/delivery efficiencies are in Table 17 are relative to that of cFΦR4 (290-1F, 100%). SUV1 are small unilamellar vesicles that mimic the neutral outer membrane of mammalian cells [45% phosphatidylcholine (PC), 20% phosphatidylethanolamine (PE), 20% sphingomyelin (SM), and 15% cholesterol (CHO)]. SUV2 are small unilamellar vesicles that mimic the negatively charged endosomal membrane of mammalian cells [50% PC, 20% PE, 10% phosphatidylinositol (PI), and 20% bis(monoacylglycerol)phosphate].

[4] = tested on: SUV2 (vesicles that mimic the negatively charged endosomal membrane of mammalian cells); assay: Fluorescence polarization membrane binding, SUV2
Text: as §1
(§2) Measurements were carried out fluorescence polarization using FITC-labeled cyclic peptides against increasing concentrations of vesicles. Experiments were performed at pH 7.4 and 5.5 (pH inside late endosomes).

[5] = tested on: SUV1 (vesicles that mimic the neutral outer membrane of mammalian cells); assay: Fluorescence polarization membrane binding, SUV1
Text: as §1, §2

[6] = pH 5.5, read-out: Membrane Binding KD (mM) SUV2 pH 5.5
[7] = pH 7.4, read-out: Membrane Binding KD (mM) SUV2 pH 7.4
[8] = pH 7.4, read-out: Membrane Binding KD (mM) SUV1 pH 7.4

Which “Mean fluorescence intensity (MFI) of CAP” value [1] does the source give for “RRRRRRRRR-miniPEG-DE(pCAP)LI (RRRRRRRRRXDEXLI; miniPEG linker, pCAP residue; (10)..(10) 8-amino-3,6-dioxaoctanoic acid; (13)..(13) phosphocoumaryl amino propionic acid) [Peptide R9-PCP, reference compound]” here?
Its value is 960 AU.

And the “CAP fluorescence in cells (confocal)” value [2]?
Its value is “weak fluorescence”.

“cyclo(FΦRRRRQ)-AAAAA-K(Rho) (cyclo(F[2Nal]RRRRQAAAAAK(RhodamineB)); not fully specified (C-terminus, bridges); printed as cyclo(FΦRRRRQ)-AAAAA-K(Rho)) [cFΦR4-A5]” was tested. Which “Intracellular fluorescence of rhodamine B-labeled peptide” value [2] did it give?
Its value is “both punctuate and diffuse fluorescence”.

What does the source list for `N=C(N)NCCC[C@@H]1NC(=O)[C@@H](CCCNC(=N)N)NC(=O)[C@H](CCCNC(=N)N)NC(=O)[C@@H](CCCNC(=N)N)NC(=O)[C@@H](Cc2ccc3ccccc3c2)NC(=O)[C@H](Cc2ccccc2)NC(=O)[C@@H](CCC(=O)N[C@@H](CCCCNC(=S)Nc2ccc3c(c2)C(=O)OC32c3ccc(O)cc3Oc3cc(O)ccc32)C(N)=O)NC1=O` [Peptide 290-18F, c(FϕrRrRq)] (cyclo(F[d2Nal][dR]R[dR]R[dE](Lys(5-FITC)NH2)))?
Uptake Efficiency (%) [3]: 205%; Kd [4, 6]: 0.022 mM; Kd [4, 7]: 0.04 mM; Kd [5, 8]: 0.75 mM

For “RQIKIWFQNRRMKWKK-miniPEG-DE(pCAP)LI (RQIKIWFQNRRMKWKKXDEXLI; miniPEG linker; pCAP residue; (17)..(17) 8-amino-3,6-dioxaoctanoic acid; (20)..(20) phosphocoumaryl amino propionic acid) [Antp-PCP, reference compound]”, which “Mean fluorescence intensity (MFI) of CAP” value [1] is on record?
Its value is 400 AU.

What about the “CAP fluorescence in cells (confocal)” value [2] of the same molecule?
Its value is “weak fluorescence”.

What does the source list for `N=C(N)NCCC[C@@H]1NC(=O)[C@H](Cc2ccc3ccccc3c2)NC(=O)[C@@H](Cc2ccccc2)NC(=O)[C@H](CCC(=O)N[C@@H](CCCCNC(=S)Nc2ccc3c(c2)C(=O)OC32c3ccc(O)cc3Oc3cc(O)ccc32)C(N)=O)NC(=O)[C@@H](CCCNC(=N)N)NC(=O)[C@H](CCCNC(=N)N)NC(=O)[C@@H](CCCNC(=N)N)NC1=O` [Peptide 290-9F, c(fΦRrRrQ)] (cyclo([dF][2Nal]R[dR]R[dR]E(Lys(5-FITC)NH2)))?
Uptake Efficiency (%) [3]: 602%; Kd [4, 6]: 0.012 mM; Kd [4, 7]: 0.033 mM; Kd ([5]; pH 5.5, read-out: Membrane Binding KD (mM) SUV1 pH 5.5): 0.81 mM; Kd [5, 8]: 1.2 mM

With `N=C(N)NCCC[C@@H]1NC(=O)[C@H](CCCNC(=N)N)NC(=O)[C@H](CCCNC(=N)N)NC(=O)[C@H](Cc2ccc3ccccc3c2)NC(=O)[C@H](Cc2ccccc2)NC(=O)[C@H](CCC(=O)N[C@@H](CCCCNC(=S)Nc2ccc3c(c2)C(=O)OC32c3ccc(O)cc3Oc3cc(O)ccc32)C(N)=O)NC1=O` [Peptide 290-5F, c(FΦRRRQ)] (cyclo(F[2Nal]RRRE(Lys(5-FITC)NH2))) as the molecule, how does the “Uptake Efficiency (%)” value [3] read?
Its value is 97%.

And the Kd [4, 6]?
Its Kd is 0.066 mM.

What about the Kd [4, 7] of the same molecule?
Its Kd is 2.4 mM.

What about the Kd [5, 8] of the same molecule?
The Kd was 10.1 mM.

With `N=C(N)NCCC[C@@H]1NC(=O)[C@@H](CCCNC(=N)N)NC(=O)[C@H](CCCNC(=N)N)NC(=O)[C@@H](CCCNC(=N)N)NC(=O)[C@@H](Cc2ccc3ccccc3c2)NC(=O)[C@H](Cc2ccccc2)NC(=O)[C@H](CCC(=O)N[C@@H](CCCCNC(=S)Nc2ccc3c(c2)C(=O)OC32c3ccc(O)cc3Oc3cc(O)ccc32)C(N)=O)NC1=O` [Peptide 290-13F, c(FϕrRrRQ)] (cyclo(F[d2Nal][dR]R[dR]RE(Lys(5-FITC)NH2))) as the molecule, how does the “Uptake Efficiency (%)” value [3] read?
The value was 200%.

What about the Kd [4, 6] of the same molecule?
Its Kd is 0.04 mM.

And the Kd [4, 7]?
Its Kd is 0.28 mM.

And the Kd [5, 8]?
Its Kd is 0.68 mM.

What does the source list for “RKKRRQRRR-miniPEG-DE(pCAP)LI (RKKRRQRRR[AEEA]DE[Ala(7-OPO3H2-coumarin-4-yl)]LI) [Tat-PCP, reference compound]”?
Mean fluorescence intensity (MFI) of CAP [1]: 290 AU; CAP fluorescence in cells (confocal) [2]: weak fluorescence

`N=C(N)NCCC[C@@H]1NC(=O)[C@H](CCCNC(=N)N)NC(=O)[C@H](CCCNC(=N)N)NC(=O)[C@H](Cc2ccccc2)NC(=O)[C@H](CCC(=O)N[C@@H](CCCCNC(=S)Nc2ccc3c(c2)C(=O)OC32c3ccc(O)cc3Oc3cc(O)ccc32)C(N)=O)NC(=O)[C@H](Cc2ccc3ccccc3c2)NC(=O)[C@H](CCCNC(=N)N)NC1=O` [Peptide 290-4F, c(FRRRRΦQ)] (cyclo(FRRRR[2Nal]E(Lys(5-FITC)NH2))) was tested. Which “Uptake Efficiency (%)” value [3] did it give?
The value was 59%.

What about the Kd [4, 6] of the same molecule?
Its Kd is 0.11 mM.

And the Kd [4, 7]?
The Kd was 0.54 mM.

And the Kd [5, 8]?
The Kd was 7.24 mM.

How did the “Uptake Efficiency (%)” value [3] turn out when `N=C(N)NCCC[C@@H]1NC(=O)[C@H](CCCNC(=N)N)NC(=O)[C@H](CCCNC(=N)N)NC(=O)[C@H](CCCNC(=N)N)NC(=O)[C@H](Cc2ccc3ccccc3c2)NC(=O)[C@H](Cc2ccccc2)NC(=O)[C@H](CCC(=O)N[C@@H](CCCCNC(=S)Nc2ccc3c(c2)C(=O)OC32c3ccc(O)cc3Oc3cc(O)ccc32)C(N)=O)NC(=O)[C@H](CCCNC(=N)N)NC1=O` [Peptide 290-6F] (cyclo([2Nal]RRRRRE(Lys(5-FITC)NH2)F)) was run?
The value was 184%.

And the Kd [4, 6]?
Its Kd is 0.019 mM.

And the Kd [4, 7]?
Its Kd is 0.12 mM.

And the Kd [5, 8]?
Its Kd is 2.2 mM.

“cyclo(FΦRRRRQ)-RRRRR-K(Rho) (cyclo(F[2Nal]RRRRQRRRRRK(RhodamineB)); not fully specified (C-terminus, bridges); printed as cyclo(FΦRRRRQ)-RRRRR-K(Rho)) [cFΦR4-R5]” was tested. Which “Intracellular fluorescence of rhodamine B-labeled peptide” value [2] did it give?
The value was “both punctuate and diffuse fluorescence”.

With “Ac-DE(pCap)LI-NH2 (Ac-DE[Ala(7-OPO3H2-coumarin-4-yl)]LI-NH2; SMILES CC[C@H](C)[C@H](NC(=O)[C@H](CC(C)C)NC(=O)[C@H](Cc1cc(=O)oc2cc(OP(=O)(O)O)ccc12)NC(=O)[C@H](CCC(=O)O)NC(=O)[C@H](CC(=O)O)NC(C)=O)C(N)=O) [untagged PCP, reference compound]” as the molecule, how does the “Mean fluorescence intensity (MFI) of CAP” value [1] read?
Its value is 30 AU.

What about the “CAP fluorescence in cells (confocal)” value [2] of the same molecule?
Its value is “failed to enter cells”.

What does the source list for `N=C(N)NCCC[C@@H]1NC(=O)[C@H](Cc2ccc3ccccc3c2)NC(=O)[C@@H](Cc2ccccc2)NC(=O)[C@H](CCC(=O)N[C@@H](CCCCNC(=S)Nc2ccc3c(c2)C(=O)OC32c3ccc(O)cc3Oc3cc(O)ccc32)C(N)=O)NC(=O)[C@H](CCCNC(=N)N)NC(=O)[C@@H](CCCNC(=N)N)NC(=O)[C@H](CCCNC(=N)N)NC(=O)[C@@H](CCCNC(=N)N)NC1=O` [Peptide 290-11F, c(fΦRrRrRQ)] (cyclo([2Nal]R[dR]R[dR]RE(Lys(5-FITC)NH2)[dF]))?
Uptake Efficiency (%) [3]: 542%; Kd [4, 6]: 0.019 mM; Kd [4, 7]: 0.092 mM; Kd [5, 8]: 2.7 mM

Which results are given for “cyclo(FΦRRRRQ)-miniPEG-DE(pCAP)LI (cyclo(F[2Nal]RRRRQ[AEEA]DE[Ala(7-OPO3H2-coumarin-4-yl)]LI); not fully specified (C-terminus, bridges); printed as cyclo(FΦRRRRQ)-miniPEG-DE(pCAP)LI) [cFΦR4-PCP]”?
Mean fluorescence intensity (MFI) of CAP [1]: 3510 AU; MFI of CAP in the presence of sodium pervanadate ([1]; PTP inhibitor sodium pervanadate): 70 AU; CAP fluorescence in cells (confocal) [2]: diffuse blue fluorescence throughout the cell
